Data published in ChEMBL document CHEMBL4651402, “Screening of ~5500 FDA-approved drugs and clinical candidates for anti-SARS-CoV-2 activity” (2021).
Counter-ions that a name gives are not always drawn.

Test system: SARS-CoV-2
Experiment: microbe, parasite or virus in culture
Conditions: Severe acute respiratory syndrome coronavirus 2, Vero C1008, 48 h

Row | Compound | IC50 | IC50 (read-out: pIC50 (converted))
1 | CN1C[C@H](C(=O)N[C@]2(C)O[C@@]3(O)[C@@H]4CCCN4C(=O)[C@H](Cc4ccccc4)N3C2=O)C[C@@H]2c3cccc4[nH]cc(c34)C[C@H]21 [DIHYDROERGOTAMINE] | > 20 µM | > 20 µM
2 | COc1cc2c(cc1OC)[C@@H]1C(=O)c3ccc4c(c3O[C@@H]1CO2)CC(C(C)C)O4 (stereo partly specified) [DIHYDROROTENONE] | > 20 µM | > 20 µM
3 | CCCCCCCCCCCCCCC[C@@H](O)[C@@H](N)CO [DIHYDROSPINGOSINE] | > 20 µM | > 20 µM
4 | O=C(CO)CO [DIHYDROXYACETONE] | > 20 µM | > 20 µM
5 | CC(C)N(CCC(c1ccccc1)c1ccccc1)C(C)C [DIISOPROMINE] | > 20 µM | > 20 µM
6 | C[C@H](CCc1ccccc1)NC[C@H](O)c1ccc(O)c(C(N)=O)c1 [DILEVALOL] | > 20 µM | > 20 µM
7 | CN(C(=O)C(Cl)Cl)c1ccc(OC(=O)c2ccco2)cc1 [DILOXANIDE FUROATE] | > 20 µM | > 20 µM
8 | COc1ccc([C@@H]2Sc3ccccc3N(CCN(C)C)C(=O)[C@@H]2OC(C)=O)cc1 [DILTIAZEM] | > 20 µM | > 20 µM
9 | CN(C)CCOC(c1ccccc1)c1ccccc1.Cn1c(=O)c2[nH]c(Cl)nc2n(C)c1=O [DIMENHYDRINATE] | > 20 µM | > 20 µM
10 | CCOC(C(=O)OCCN(C)C)(c1ccccc1)c1ccccc1 [DIMENOXADOL] | > 20 µM | > 20 µM
11 | CCC(O)C(CC(C)N(C)C)(c1ccccc1)c1ccccc1 (stereo unspecified) [DIMEPHEPTANOL] | > 20 µM | > 20 µM
12 | CC1(C)OC(=O)NC1=O [DIMETHADIONE] | > 20 µM | > 20 µM
13 | CCCCc1cc2ccccc2c(OCCN(C)C)n1 [DIMETHISOQUIN] | > 20 µM | > 20 µM
14 | COC(=O)/C=C/C(=O)OC [DIMETHYL FUMARATE] | > 20 µM | > 20 µM
15 | CN(C)CCO [DIMETHYLAMINOETHANOL] | > 20 µM | > 20 µM
16 | CCc1cnn2c(NCc3ccc[n+]([O-])c3)cc(N3CCCC[C@H]3CCO)nc12 [DINACICLIB] | > 20 µM | > 20 µM
17 | Cc1c(C(N)=O)cc([N+](=O)[O-])cc1[N+](=O)[O-] [DINITOLMIDE] | > 20 µM | > 20 µM
18 | CCCCC[C@H](O)/C=C/[C@H]1[C@H](O)CC(=O)[C@@H]1C/C=C\CCCC(=O)O [DINOPROSTONE] | > 20 µM | > 20 µM
19 | CCCCC[C@H](O)/C=C/[C@@H]1[C@@H](C/C=C\CCCC(=O)O)[C@@H](O)C[C@H]1O [DINOPROST] | > 20 µM | > 20 µM
20 | COc1ccc(-c2cc(=O)c3c(O)cc(O)cc3o2)cc1O [DIOSMETIN] | > 20 µM | > 20 µM
21 | c1ccc(C2(c3ccccc3)OCC(C3CCCCN3)O2)cc1 (stereo unspecified) [DIOXADROL] | > 20 µM | > 20 µM
22 | CCCCCCCCCC1(C)OCC(COC(N)=O)O1 (stereo unspecified) [DIOXAMATE] | > 20 µM | > 20 µM
23 | CCOC(=O)C(CCN1CCOCC1)(c1ccccc1)c1ccccc1 [DIOXAPHETYL BUTYRATE] | > 20 µM | > 20 µM
24 | COc1ccc(C(=O)c2ccccc2O)c(O)c1 [DIOXYBENZONE] | > 20 µM | > 20 µM
25 | O=c1c(-c2ccccc2)c1-c1ccccc1 [DIPHENCYPRONE] | > 20 µM | > 20 µM

Row | Compound | IC50 | IC50 (read-out: pIC50 (converted))
26 | OC(CCCN1CCCCC1)(c1ccccc1)c1ccccc1 [DIPHENIDOL] | > 20 µM | > 20 µM
27 | CCOC(=O)C1(c2ccccc2)CCN(CCC(C#N)(c2ccccc2)c2ccccc2)CC1 [DIPHENOXYLATE] | > 20 µM | > 20 µM
28 | CNCC(O)c1ccc(OC(=O)C(C)(C)C)c(OC(=O)C(C)(C)C)c1 (stereo unspecified) [DIPIVEFRIN] | > 20 µM | > 20 µM
29 | CC(=O)Oc1ccccc1C(=O)Oc1ccccc1C(=O)O [DIPLOSALSALATE] | > 20 µM | > 20 µM
30 | CCOc1ccc(CC2=NCCc3cc(OC(C)C)c(OC(C)C)cc32)cc1OCC [DIPROTEVERINE] | > 20 µM | > 20 µM
31 | OCCN(CCO)c1nc(N2CCCCC2)c2nc(N(CCO)CCO)nc(N3CCCCC3)c2n1 [DIPYRIDAMOLE] | > 20 µM | > 20 µM
32 | CC[C@H]1OC(=O)[C@H](C)[C@@H](O[C@H]2C[C@@](C)(OC)[C@@H](O)[C@H](C)O2)[C@H](C)[C@@H](O[C@@H]2O[C@H](C)C[C@H](N(C)C)[C@H]2O)[C@](C)(O)C[C@@H](C)[C@@H]2N[C@@H](COCCOC)O[C@H]([C@H]2C)[C@]1(C)O [DIRITHROMYCIN] | > 20 µM | > 20 µM
33 | COC(=O)/C=C/C(=O)OCCN1C(=O)CCC1=O [DIROXIMEL FUMARATE] | > 20 µM | > 20 µM
34 | CC(C)N(CCC(CCN1CCCCC1)(C(N)=O)c1ccccc1Cl)C(C)C (stereo unspecified) [DISOBUTAMIDE] | > 20 µM | > 20 µM
35 | C[C@@H]1CC[C@@]2(OC1)O[C@H]1C[C@H]3[C@@H]4CC=C5C[C@@H](O)CC[C@]5(C)[C@H]4CC[C@]3(C)[C@H]1[C@@H]2C [DISOGENIN] | > 20 µM | > 20 µM
36 | CC(C)N(CCC(C(N)=O)(c1ccccc1)c1ccccn1)C(C)C (stereo unspecified) [DISOPYRAMIDE] | > 20 µM | > 20 µM
37 | Cc1cc(CCCCCCCOc2ccc(C3=NCCO3)cc2)on1 [DISOXARIL] | > 20 µM | > 20 µM
38 | OCCN(CCO)c1nc(-c2ccccc2)c(-c2ccccc2)o1 [DITAZOLE] | > 20 µM | > 20 µM
39 | CCN1/C(=C/C=C/C=C/c2sc3ccccc3[n+]2CC)Sc2ccccc21 [DITHIAZANINE IODIDE] | > 20 µM | > 20 µM
40 | CCN1C(=CC=CC=Cc2sc3ccccc3[n+]2CC)Sc2ccccc21 [DITHIAZANINE] | > 20 µM | > 20 µM
41 | CCN(CC)C(=S)S [DITIOCARB] | > 20 µM | > 20 µM
42 | CC(CN1CCN(CCOCCO)CC1)CN1c2ccccc2Sc2ccccc21 (stereo unspecified) [DIXYRAZINE] | > 20 µM | > 20 µM
43 | C[C@]12N[C@H](Cc3ccccc31)c1ccccc12 [DIZOCILPINE] | > 20 µM | > 20 µM
44 | c1cncc(C2CCCCN2)c1 (stereo not drawn) [DL-ANABASINE] | > 20 µM | > 20 µM
45 | CC(CCc1ccc(O)cc1)NCCc1ccc(O)c(O)c1 (stereo unspecified) [DOBUTAMINE] | > 20 µM | > 20 µM
46 | CC1=C(C)C(=O)C(CCCCC#CCCCC#CCO)=C(C)C1=O [DOCEBENONE] | > 20 µM | > 20 µM
47 | CC/C=C\C/C=C\C/C=C\C/C=C\C/C=C\C/C=C\CCC(=O)O [DOCONEXENT] | > 20 µM | > 20 µM
48 | CCCCCCCCCCCC(=O)O [DODECANOATE] | > 20 µM | > 20 µM
49 | CN(CCOc1ccc(NS(C)(=O)=O)cc1)CCc1ccc(NS(C)(=O)=O)cc1 [DOFETILIDE] | > 20 µM | > 20 µM
50 | C[C@@H]1CCO[C@H]2Cn3cc(C(=O)NCc4ccc(F)cc4F)c(=O)c(O)c3C(=O)N12 [DOLUTEGRAVIR] | > 20 µM | > 20 µM

Row | Compound | IC50 | IC50 (read-out: pIC50 (converted))
51 | CCCCCCCCCCCC[N+](C)(C)CCOc1ccccc1 [DOMIPHEN] | > 20 µM | > 20 µM
52 | O=c1[nH]c2ccccc2n1CCCN1CCC(n2c(=O)[nH]c3cc(Cl)ccc32)CC1 [DOMPERIDONE] | > 20 µM | > 20 µM
53 | COc1cc(CC(C)N)c(OC)cc1C (stereo unspecified) [DOM] | > 20 µM | > 20 µM
54 | COc1cc2c(cc1OC)C(=O)C(CC1CCN(Cc3ccccc3)CC1)C2 (stereo unspecified) [DONEPEZIL] | > 20 µM | > 20 µM
55 | O=C(NCCc1ccc(O)c(O)c1)C12CC3CC(CC(C3)C1)C2 [DOPAMANTINE] | > 20 µM | > 20 µM
56 | NCCc1ccc(O)c(O)c1 [DOPAMINE] | > 20 µM | > 20 µM
57 | Cc1ccc(-n2nc(C(C)(C)C)cc2NC(=O)Nc2ccc(OCCN3CCOCC3)c3ccccc23)cc1 [DORAMAPIMOD] | > 20 µM | > 20 µM
58 | CCN[C@H]1C[C@H](C)S(=O)(=O)c2sc(S(N)(=O)=O)cc21 [DORZOLAMIDE] | > 20 µM | > 20 µM
59 | CCN1CC(CCN2CCOCC2)C(c2ccccc2)(c2ccccc2)C1=O (stereo unspecified) [DOXAPRAM] | > 20 µM | > 20 µM
60 | COc1cc2nc(N3CCN(C(=O)C4COc5ccccc5O4)CC3)nc(N)c2cc1OC (stereo unspecified) [DOXAZOSIN] | > 20 µM | > 20 µM
61 | Nc1ccn([C@H]2C[C@H](O)[C@@H](CO)O2)c(=O)n1 [DOXECITINE] | > 20 µM | > 20 µM
62 | Cn1c(=O)c2c(ncn2CC2OCCO2)n(C)c1=O [DOXOFYLLINE] | > 20 µM | > 20 µM
63 | CN(C)[C@@H](c1cccnc1)C1COCOC1 [DOXPICOMINE] | > 20 µM | > 20 µM
64 | Cc1cn([C@H]2C[C@H](O)[C@@H](CO)O2)c(=O)[nH]c1=O [DOXRIBTIMINE] | > 20 µM | > 20 µM
65 | C[C@H]1c2cccc(O)c2C(=O)C2=C(O)[C@]3(O)C(=O)C(C(N)=O)=C(O)[C@@H](N(C)C)[C@@H]3[C@@H](O)[C@@H]21 [DOXYCYCLINE] | > 20 µM | > 20 µM
66 | CN(C)CCOC(C)(c1ccccc1)c1ccccn1 (stereo unspecified) [DOXYLAMINE] | > 20 µM | > 20 µM
67 | CCN(CC)CCOC(=O)C(c1ccccc1)C1CCCCC1 (stereo unspecified) [DROFENINE] | > 20 µM | > 20 µM
68 | O=C(CCCN1CC=C(n2c(=O)[nH]c3ccccc32)CC1)c1ccc(F)cc1 [DROPERIDOL] | > 20 µM | > 20 µM
69 | OCC(O)CN1CCN(c2ccccc2)CC1 (stereo unspecified) [DROPROPIZINE] | > 20 µM | > 20 µM
70 | CCOc1ccc(/C=C2\NCCc3cc(OCC)c(OCC)cc32)cc1OCC [DROTAVERINE] | > 20 µM | > 20 µM
71 | Cc1cc(Nc2ccc(S(F)(F)(F)(F)F)cc2)n2nc(C(C)(F)F)nc2n1 [DSM-265] | > 20 µM | > 20 µM
72 | CN1CCN(Cc2ccc(Nc3ncc(Cl)c(Nc4ccccc4S(=O)(=O)N(C)C)n3)cc2)CC1 [DUBERMATINIB] | > 20 µM | > 20 µM
73 | OC[C@H]1NC[C@H](O)[C@@H](O)[C@@H]1O [DUVOGLUSTAT] | > 20 µM | > 20 µM
